Legend:
[1] = tested on: bone marrow samples of acute lymphoid leukemia (ALL) patients; assay: Ex vivo test of single drugs, EC50 compared with population distribution, acute lymphoid leukemia samples; type: cell-based, human; conditions: ALL second line patient VIVIA-PMALL04001, 48 h
Experimental: Bone marrow samples were obtained from three adult patients diagnosed with MM (VIVIA-PMMM010431, VIVIA-PMMM060111 and VIVIA-PMMM130061) and three adult patients diagnosed with ALL (VIVIA-PMALL07002, VIVIA-PMALL04001 and VIVIA-PMALL09001). Following the same experimental design as described for examples 1 and 3, said bone marrow samples were incubated for 48 h in well plates containing the single drugs shown in FIGS. 21 to 26. After the measurement of pathological populations by flow cytometry, pharmacological response parameters were estimated using population pharmacodynamic models. The most representative parameter of drug potency, the EC50, was used for a comparative analysis of the results provided by said bone marrow samples with respect to the statistical distribution of the same parameter observed in a population of samples and stored in the database. Such populations varied in size depending on the drug, being always over one hundred individuals in the case of MM and between 15 and 21 individuals in the case of ALL.

[2] = tested on: live pathological cells (LPC) in bone marrow samples of AML patients; assay: PharmaFlow PM test: ex vivo drug sensitivity of whole bone marrow samples, population pharmacodynamic models; type: cell-based, human; conditions: typical population value
Experimental: Ex vivo drug sensitivity analysis was made using the PharmaFlow platform (previously termed ExviTech®) maintaining the bone marrow (BM) microenvironment. A minimum BM sample volume between one and two mL was collected by aspiration at AML diagnosis, before starting induction chemotherapy, and was processed by an automated method 24 hours after extraction. Samples were incubated with CYT, IDA and/or CYT+IDA for 48 hours. A more detailed description of the procedure has been published elsewhere (Bennett, et al 2014).
Evaluation of drug response was done by counting the number of live pathological cells (LPC) remaining after incubation at increasing drug concentrations (Upton and Mould 2014). Dying cells (apoptosis) were excluded using Annexin V-FITC. Pharmacological responses were analyzed using PD population-based models (Upton and Mould 2014) which essentially perform the fitting of the dependent variable (natural log of LPC) in a non-linear mixed-effects model to derive typical population values (fixed effects) and the magnitude of inter-patient and residual variability (random effects).
Model development was performed with the first-order conditional estimation method using interaction option with the software NONMEM (v7.2) (Beal, et al 1989-2001), according to the following equation: […]
Where LPC0 (LCTi0) parameter refers to the number of LPC (LCTi) after incubation in the absence of drug, Emax represents the maximum fractional decrease in LPC that the drug can elicit, EC50, is the drug concentration exerting half of Emax, and γ is the parameter governing the steepness of the LPC vs drug concentration (C) curve. For interaction analysis a Surface Interaction model (Greco, et al 1995) was used to estimate the degree of synergy, referred as a parameter, between both drugs. Interpatient variability (IPV) associated to all parameters was described by means of an exponential model of the components of variance. An additive error structure was used for the residual variability. Population PD models were built with bone marrow (BM) samples from 473 patients that were incubated with CYT, 456 with IDA and 443 with CYT+IDA. Bayesian estimation methods were then used to retrieve individual patient parameters based on their available exposure-response measurements in conjunction with the PD population parameters.
Individual response profiles normalized with respect to LPC0 (LCTi0), were integrated between the concentration points corresponding to the 20th and 80th percentiles of the distribution of estimated individual EC50 values, to obtain the values of the areas under the curves (AUCs) that were used as a descriptor of the ex vivo drug effect (i.e. the higher the AUC, the lower the cytotoxic effect (efficacy or potency) of the drug.

[3] = tested on: first-line AML patients treated with CYT+IDA; assay: Validation of PM Test score vs clinical response in 112 first-line AML samples; type: in vivo, human; conditions: 112 AML patients treated with CYT+IDA
Description: The Precision Medicine (PM) Test as described ranks treatments by a score that estimates the activity of each treatment across a population of patient samples. Higher score represents more ex vivo sensitivity to treatment, while lower score represents less ex vivo sensitivity to treatment, i.e. more ex vivo resistance. A particular format of the results of the PM Test is shown in FIG. 19, panels A and B, wherein the ranking of treatments by activity score from 100%=best to 0%=worst is shown (score may be represented graphically using a colour/tone gradient or categorisation). The following 3 categories are identified:
To validate the predictive power of these PM Test score results, the set of 123 samples treated homogeneously with CYT+IDA that were used in the correlation study of Example 1 were employed. Only 112 samples were used for validation. To evaluate the predictive power of the PM Test score, in the format shown in FIG. 19, panel A referring to a sensitive patient we can only use patients predicted to be sensitive or resistant. Treatments having intermediate scores are not considered sufficiently strong to predict any response. In the case of intermediate scores, other factors such as pharmacokinetics may be more important than the score. On the other hand, extreme scores are more likely to prevail over other factors such as pharmacokinetics.
The set of data of 112 patients treated with CYT+IDA represents a 1st line treatment of AML with a 72% response rate. This means that 72% of these 112 patients achieved Complete Remission (CR) clinically. The majority of patients were sensitive, with fewer resistant patients. Thus, the statistics are improved by calculating the % of cases in which the PM Test score predicted patients to be sensitive to the ex vivo treatment. This means selecting only the treatments to which the patient is expected to be very sensitive, with scores between 80-100%. The % of accurate prediction of sensitive (responsive) patients is referred as the Negative Predicted Value (NPV).
Samples whose score are between this variable threshold and 100% are analysed and predicted as sensitive because they have the top score. The results are shown for the monotherapies CYT and IDA, and for the combination treatment. Focus was placed on the combination treatment CYT+IDA that was administered to patients. Columns 8 to 10 of Table 4 show the results for the combined treatment CYT+IDA for different thresholds. The lowest threshold 55%, which means between 55 and 100%, identifies 93 out of the 112 samples, that would be predicted as sensitive. […] Thus, the prediction accuracy or NPV is 77/93=82.8%. As the threshold is increased (descending the 1st column of Table 4), the range of scores included is narrowed because the maximum is always 100%. Consequently, as the threshold is increased, the total number of samples included diminishes, reaching 0 samples at 100% (100-100%) and 18 samples at 95%. The decrease can be observed in the number of either sensitive or resistant samples (descending columns 8 and 9 of Table 4). […] Thus, the higher the score, the better the prediction (moreover, the intermediate sensitivity values provide less accurate prediction than the extreme values).

CC(=O)[C@]1(O)Cc2c(O)c3c(c(O)c2[C@@H](O[C@H]2C[C@H](N)[C@H](O)[C@H](C)O2)C1)C(=O)c1ccccc1C3=O [Idarubicin, idarubicin]
ex vivo activity [1]: very potent activity | EC50 ([2]; Homo sapiens, AML bone marrow samples, 48 h incubation): 0.087 µM | EMAX (maximum fractional decrease in LPC) ([2]; set to 1 in the model, 48 h): 1 | γ (steepness of LPC vs concentration curve) ([2]; 48 h): 1.14 | % Sens. (percentage of patients sensitive to therapy, NPV) ([3]; PM Test score ≥55): 84.8% | Res. (number of patients resistant to therapy) ([3]; PM Test score ≥55): 12 | Sens. (number of patients sensitive to therapy) ([3]; PM Test score ≥55): 67 | % Sens. (percentage of patients sensitive to therapy, NPV) ([3]; PM Test score ≥60): 84.9% | Res. (number of patients resistant to therapy) ([3]; PM Test score ≥60): 11 | Sens. (number of patients sensitive to therapy) ([3]; PM Test score ≥60): 62 | % Sens. (percentage of patients sensitive to therapy, NPV) ([3]; PM Test score ≥65): 87.0% | Res. (number of patients resistant to therapy) ([3]; PM Test score ≥65): 9 | Sens. (number of patients sensitive to therapy) ([3]; PM Test score ≥65): 60 | % Sens. (percentage of patients sensitive to therapy, NPV) ([3]; PM Test score ≥70): 86.6% | Res. (number of patients resistant to therapy) ([3]; PM Test score ≥70): 9 | Sens. (number of patients sensitive to therapy) ([3]; PM Test score ≥70): 58 | % Sens. (percentage of patients sensitive to therapy, NPV) ([3]; PM Test score ≥75): 85.2% | Res. (number of patients resistant to therapy) ([3]; PM Test score ≥75): 9 | Sens. (number of patients sensitive to therapy) ([3]; PM Test score ≥75): 52 | % Sens. (percentage of patients sensitive to therapy, NPV) ([3]; PM Test score ≥80): 85.7% | Res. (number of patients resistant to therapy) ([3]; PM Test score ≥80): 8 | Sens. (number of patients sensitive to therapy) ([3]; PM Test score ≥80): 48 | % Sens. (percentage of patients sensitive to therapy, NPV) ([3]; PM Test score ≥85): 86.5% | Res. (number of patients resistant to therapy) ([3]; PM Test score ≥85): 7 | Sens. (number of patients sensitive to therapy) ([3]; PM Test score ≥85): 45 | % Sens. (percentage of patients sensitive to therapy, NPV) ([3]; PM Test score ≥90): 88.4% | Res. (number of patients resistant to therapy) ([3]; PM Test score ≥90): 5 | Sens. (number of patients sensitive to therapy) ([3]; PM Test score ≥90): 38 | % Sens. (percentage of patients sensitive to therapy, NPV) ([3]; PM Test score ≥95): 96.8% | Res. (number of patients resistant to therapy) ([3]; PM Test score ≥95): 1 | Sens. (number of patients sensitive to therapy) ([3]; PM Test score ≥95): 30 | Res. (number of patients resistant to therapy) ([3]; PM Test score ≥100): 0 | Sens. (number of patients sensitive to therapy) ([3]; PM Test score ≥100): 0

Source: patent US20210358575A1, “A METHOD FOR DETERMINING THE EFFICACY OF TREATMENT WITH A COMBINATION OF DRUGS IN A SUBJECT DIAGNOSED WITH A DISEASE AND A METHOD FOR CLASSIFYING THE UTILITY OF DRUG COMBINATIONS IN TREATMENT OF SAID SUBJECT” (priority 2018, published 2021)
